In one data set the test system is L. infantum. As to the kind of experiment: Clinical study in dogs infected with L. infantum: IFAT antibody titers. Type of data set: in vivo. As to conditions: Glucantime 100 mg/kg dNMA SC or Fexinidazole 60 mg/kg PO once daily Days 0-27. Here is the method: In a clinical study, dogs infected with L. infantum were treated with meglumine antimoniate (GLUCANTIME®, Merial) as a positive control, or FEX (Table 5). Eight blocks of two animals were formed based antibody titers and biological scores. Six dogs in each group were naturally infected by housing them in an endemic area for two years and two dogs in each group were artificially infected by intravenous administration of a known quantity of parasites recovered from the spleen of an infected dog.
The first group (FEX) was compared to the second group, which was treated with 27 mg/kg GLUCANTIME (meglumine antimoniate, or 100 mg/kg of dNMA) “GLU”), over 28 days.
Variables. The Clinical Score is an additive score of various clinical signs (body condition, lymphadenopathy, splenomegaly, appetite, behavior, mucous membrane color, dermatopathology, ocular signs, digestive signs, arthropathy) evaluated before treatment and on Days 7, 14, 21, 28, 57, 184, 219, 254, 282, 310, 345, 400 and 436. The Overall Biological Score is an additive score based on the severity of changes in hematology/chemistry values (creatinine, urine protein/creatinine, Hct, globulin, ALAT), evaluated pretreatment and on Days 28, 57, and 181. The L. infantum immunofluorescent antibody titers (IFAT) were determined from samples collected before treatment and on Days 28, 57, and 181. Finally, quantitative PCR (qPCR) for L. infantum was conducted on spleen aspirates collected before treatment and on Days 28, 57, 142, 184, and 373.

Data set [1] can be described thus: Multiple dosing study in dogs, 28 consecutive days oral: tolerability. To be noted: for Effects observed: dog, in vivo. Format: in vivo, dog. The source says:
In a particular embodiment, the sufficient fexinidazole plasma levels are achieved by administering oral veterinary compositions comprising an effective amount of fexinidazole over a period of time of at least about twenty days. The fexinidazole may be administered according to any effective regimen, including, but not solely, once weekly, twice weekly, once daily, or twice daily. All that is required is that dosing regimen maintains a sufficient fexinidazole plasma level, over a sufficient period of time, to substantially or completely eliminate or cure the Leishmania infections.
Moreover, inventors expect that a wide variety of dosing regimens are now available to the skilled person to achieve the necessary and sufficient fexinidazole plasma levels. For example, and as further outlined in the Examples below, any dosing regimen that produces substantially similar fexinidazole plasma levels, as compared to those levels produced by giving the dogs about 60 mg/kg/day for about twenty-eight days, is expected to substantially or completely eliminate the Leishmania parasites. Table 1 presents the systemic fexinidazole exposure following dosing of dogs with 50, 200, and 800 mg/kg/day.

A short description of data set [2]: Toxicology studies in beagles, 90 days (13 weeks). Format: in vivo. As to conditions: daily doses up to 125 mg/kg/day for 90 days (13 weeks). The source says: (§1) Toxicology summary. In mice and rats, the maximum fexinidazole (FEX) dose after oral administration is 10 g/kg of body weight. […] Finally, as regards PK, labeled FEX and its metabolites were excreted within 3 days in the feces (52-58%) and urine (36-40%).

Another data set has as its system bone marrow micronucleus. The experiment in a line: Mammalian cell mutagenicity, bone marrow micronucleus study. To be noted: all test concentrations (500, 1000 and 2000 mg/kg). Format: in vivo.
From the text: as §1

The nature of data set [3]: Toxicology summary: maximum dose after oral administration, mice. Type of data set: in vivo.
From the text: as §1

Data set [4] concerns Leishmania donovani amastigotes grown in macrophages. As to conditions: Wyllie S et al., 2012; cited from earlier work.

SMILES strings stand for the structures. Values joined by “and” are separate entries in the source; they are usually repeats but may differ in a detail not shown here. Equal entries are not always repeated.

For the molecule `CSc1ccc(OCc2ncc([N+](=O)[O-])n2C)cc1` [Fexinidazole, fexinidazole], the “L. infantum IFAT Antibody Titers” value is 1/80 in the data set on L. infantum (Day 28, individual dogs); 1/640 (2×) and 1/320 and 1/80 in the data set with L. infantum (Day 57, individual dogs); 1/640 (2×) and 1/320 and 1/80 in the data set with L. infantum (Day 181, individual dogs). The Effects observed result is “no effects were observed” in data set [1] (200 mg/kg/day) and “only minor effects were observed” in data set [1] (800 mg/kg/day). The Tolerability result in data set [1] (dogs, oral 50, 200 and 800 mg/kg/day for 28 consecutive days) was “well tolerated”. The “adverse events (AEs)” value in data set [2] is “no observed adverse events”. Also, the “mammalian cell mutagenicity, bone marrow micronucleus study” value in the data set on bone marrow micronucleus is recorded as “negative”. Also, in data set [3], the “maximum dose after oral administration” value is reported as 10 g/kg of body weight. Moreover, the “activity against Leishmania donovani amastigotes grown in macrophages” value in data set [4] is “inactive”.

Values taken from US9585871B2, “Method for treating and curing leishmaniosis using fexinidazole” (Merial Limited, priority 2013, dated 2017).
